Values joined by “and” are separate entries in the source; they are usually repeats but may differ in a detail not shown here. Equal values may be shown once. Read-outs that look alike come from different tables or passages of the source.
Key:
[1] = Hepatic microsome stability, mouse; type: in vitro ADME
From the text: The microsomal stability assay is commonly used to rank compounds according to their metabolic stability. This assay addresses the pharmacologic question of how long the parent compound will remain circulating in plasma within the body.

A253 = test: Proliferation, A253; type: cell-based; conditions: Homo sapiens, 24 hours, average of three experiments
Method: (§1) To determine whether ML291 could reduce the proliferation of malignant cells, a panel of OSCC (UMSCC23, A253, HN6, HN12, HN30, H460/T800) and ovarian cancer (RMG-1, TOV112D, A2780 and SKOV3) cell lines, were treated with increasing doses (0.15-20 μM) of ML291 for 24 hours (FIGS. 3A and 3B).

A253-CHOP-luc xenografts = test: Bioluminescent imaging of A253-CHOP-luc xenografts; type: in vivo, SCID mice; conditions: 24 hours after 10 mg/kg (IP)
−/− MEF KO CHOP = test: Proliferation / cytotoxicity (ATPLite) in MEF with CHOP KO; type: cell-based; conditions: Mus musculus
Method: Several of the analogs derived from these changes were evaluated in secondary assays as they met the preliminary probe criteria for UPR-CHOP and UPR-XBP1 activity. Select compounds were assessed in a dose response manner for the ability to suppress proliferation in both the CHOP wild-type and CHOP knockout murine embryonic fibroblasts (−/− MEF KO CHOP)(Table 2).
It was determined whether ML291 and ML291 congeners would induce cell death (cytotoxicity as measured by ATPLite®, which measures production of ATP from living cells) in cells where these pathways are operant, but not activate them in the absence of the pathways.

HN12 = test: Proliferation, HN12; type: cell-based; conditions: 24 hours, average of three experiments
Method: as §1

[2] = Plasma protein binding, human; type: in vitro ADME
From the text: (§2) Plasma protein binding is a measure of a drug's efficiency to bind to the proteins within blood plasma. The less bound a drug is, the more efficiently it can traverse cell membranes or diffuse. Highly plasma protein bound drugs are confined to the vascular space, thereby having a relatively low volume of distribution. In contrast, drugs that remain largely unbound in plasma are generally available for distribution to other organs and tissues. ML291 was highly plasma protein bound to human plasma proteins (>99%), though it is somewhat less tightly bound to mouse plasma proteins (˜84%).

TOV112D (ovarian) = test: Proliferation, TOV112D; type: cell-based; conditions: Homo sapiens, 24 hours
Method: as §1

H460/T800 = test: Proliferation, H460/T800; type: cell-based; conditions: Homo sapiens, NCI-H460, 24 hours, average of three experiments
Method: as §1

PAMPA permeability = type: in vitro ADME
Method: The PAMPA (Parallel Artificial Membrane Permeability Assay) assay was used as an in vitro model of passive, transcellular permeability. An artificial membrane immobilized on a filter was placed between a donor and acceptor compartment. At the start of the test, drug was introduced in the donor compartment. Following the permeation period, the concentration of drug in the donor and acceptor compartments was measured using UV spectroscopy.

[3] = Aqueous solubility in 1x PBS, pH 7.4; type: physicochemical; conditions: room temperature (23° C.)
Method: Solubility was measured in phosphate-buffered saline (PBS) at room temperature (23° C.). PBS by definition is 137 mM NaCl, 2.7 mM KCl, 10 mM sodium phosphate dibasic, 2 mM potassium phosphate monobasic and a pH of 7.4.

OSCC = test: Preliminary combination studies with cisplatin and taxol; type: cell-based
Method: To confirm the ability of ML291 to activate UPR-luciferase reporters stably transfected into UMSCC23 and A253 cells and reduce tumor burden, additional xenograft studies are performed with additional animals to permit real-time measurement of UPR activation during drug treatment (bioluminescent imaging). The data presented herein indicate that ML291 can activate the UPR in xenograft tissue at 10 mg/kg. […] Thus, mice are injected IP in the morning with 10-100 mg/kg ML291. Injection in the morning, i.e., when the lights come on in the vivarium and the mice stomachs are most likely to be full, is a technique known to enhance absorption of nitrofurans into the bloodstream (Heinrichs (2001) Behavioural Brain Res. 125:81-88). […] Upon completion of this experiment, control and ML291 treated mice (3 each) undergo complete pathological necropsy to identify gross or histological signs of organ toxicity. Once the degree to which ML291 induces the UPR and reduces xenograft burden is analyzed, additional studies are carried out with combination therapies using standard of care OSCC drugs. […] It is posited that ML291-enforced UPR in the tumor milieu potentiates conventional therapies and might enhance the effects of cisplatin, ifosfamide or taxol.

Plasma stability, human = type: in vitro ADME
From the text: Plasma stability is a measure of the stability of small molecules and peptides in plasma and is an important parameter, which strongly can influence the in vivo efficacy of a test compound. Drug candidates are exposed in plasma to enzymatic processes (proteinases, esterases), and they can undergo intramolecular rearrangement or bind irreversibly (covalently) to proteins. ML291 appeared to be moderately stable in human plasma (˜84% remaining), but less so in mouse plasma (˜52% remaining).

HN6 = test: Proliferation, HN6; type: cell-based; conditions: HN-6, 24 hours, average of three experiments
Method: as §1

[4] = biological target: T1, dopamine transporter (DAT) (Homo sapiens, UniProt Q01959); test: Radio-ligand binding panel (Ricerca), 67 GPCRs, ion channels and transporters
T1 construct: Ricerca Biosciences LLC (Bothell, Wash.)
T1 sequence (Q01959 whole entry, species assumed): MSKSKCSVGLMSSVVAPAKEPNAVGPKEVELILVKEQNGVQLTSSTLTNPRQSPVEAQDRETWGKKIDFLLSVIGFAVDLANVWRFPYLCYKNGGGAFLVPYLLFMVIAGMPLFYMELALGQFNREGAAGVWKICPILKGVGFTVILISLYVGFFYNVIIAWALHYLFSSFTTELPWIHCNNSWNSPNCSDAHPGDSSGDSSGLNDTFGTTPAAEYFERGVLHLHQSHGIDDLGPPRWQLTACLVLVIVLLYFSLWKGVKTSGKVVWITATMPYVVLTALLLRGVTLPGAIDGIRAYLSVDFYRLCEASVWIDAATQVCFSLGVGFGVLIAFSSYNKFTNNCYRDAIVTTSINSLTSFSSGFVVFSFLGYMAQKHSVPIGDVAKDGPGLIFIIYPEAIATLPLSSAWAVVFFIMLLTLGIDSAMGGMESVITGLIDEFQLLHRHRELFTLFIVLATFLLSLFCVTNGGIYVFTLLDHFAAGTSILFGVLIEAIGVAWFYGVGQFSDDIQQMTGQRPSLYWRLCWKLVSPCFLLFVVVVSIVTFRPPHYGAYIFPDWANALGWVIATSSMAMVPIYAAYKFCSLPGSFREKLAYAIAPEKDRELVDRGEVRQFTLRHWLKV
Method: ML291 was submitted to Ricerca Biosciences LLC (Bothell, Wash.) to evaluate it in radio-ligand binding assays to determine activity against a panel of 67 GPCRs, ion channels and transporters at 10 μM.

RMG-1 (ovarian) = test: Proliferation, RMG-1; type: cell-based; conditions: 24 hours
Method: as §1

[5] = Plasma protein binding, mouse; type: in vitro ADME
From the text: as §2

UMSCC23 = test: Proliferation, UMSCC23; type: cell-based; conditions: Homo sapiens, 24 hours, average of three experiments
Method: as §1

[6] = Tolerability of ML291 in mice; type: in vivo

O=C(Nc1ccc(S(=O)(=O)N2CCC(Cl)CC2)cc1)c1ccc([N+](=O)[O-])o1 [ML291, N-(4-((4-chloropiperidin-1-yl)sulfonyl)phenyl)-5-nitrofuran-2-carboxamide]
Hepatic Microsome Stability (% Remaining after 1 hour @ 37° C.) ([1]; Mouse): 0.02%
metabolism in mouse liver homogenates ([1]; within 1 hour): almost completely metabolized
IC50 (A253): 17.2 ± 3.64 µM
luminescence of xenografts (A253-CHOP-luc xenografts): increased luminescence
EC50 (−/− MEF KO CHOP; Table 2, mean of replicates, EC50 and μM, read-out: Proliferation −/− MEF KO CHOP): > 20 µM
IC50 (−/− MEF KO CHOP; Table 5, MEF, ATPLite): > 20 µM
EC50 (−/− MEF KO CHOP; read-out: EC50 on −/− MEF knockout cells): > 20 µM
IC50 (HN12): 7.17 ± 0.69 µM
bound to human plasma proteins [2]: > 99%
fraction unbound at 1 µM ([2]; plasma, Human, 1 μM, read-out: Plasma Protein Binding (% Bound) (converted)): 0.0025
fraction unbound at 10 µM ([2]; plasma, Human, 10 μM, read-out: Plasma Protein Binding (% Bound) (converted)): 0.0037
IC50 (TOV112D (ovarian)): 6.59 µM
IC50 (H460/T800): 18.9 ± 1.83 µM
PAMPA Permeability, Pe (PAMPA permeability; Donor pH 5.0, Acceptor pH 7.4): 291 ×10⁻⁶ cm/s
PAMPA Permeability, Pe (PAMPA permeability; Donor pH 6.2, Acceptor pH 7.4): 329 ×10⁻⁶ cm/s
PAMPA Permeability, Pe (PAMPA permeability; Donor pH 7.4, Acceptor pH 7.4): 245 ×10⁻⁶ cm/s
PAMPA permeability (PAMPA permeability; donor pH 5.0, 6.2 and 7.4): good permeability
Aqueous Solubility in 1x PBS, pH 7.4 [3]: 3.9 μg/mL and 9.4 μM
effect of combination with cisplatin and taxol (OSCC): reduced IC50 values
remaining in human plasma (Plasma stability, human): ~84%
Plasma Stability (% Remaining at 3 hours @ 37° C.) (Plasma stability, human; Human): 85.58%
IC50 (HN6): > 20 µM
inhibition at 10 µM [4]: 68%
IC50 (RMG-1 (ovarian)): > 20 µM
bound to mouse plasma proteins [5]: ~84%
fraction unbound at 1 µM ([5]; plasma, Mouse, 1 μM, read-out: Plasma Protein Binding (% Bound) (converted)): 0.155
fraction unbound at 10 µM ([5]; plasma, Mouse, 10 μM, read-out: Plasma Protein Binding (% Bound) (converted)): 0.157
IC50 (UMSCC23): 7.31 ± 1.68 µM
weight, physical appearance, disposition or activity versus controls ([6]; 10 mg/kg IP daily, preliminary): no differences in weight, physical appearance, disposition or activity
side effects ([6]; 10 mg/kg bi-weekly for four weeks): did not display any obvious side effects

— patent US9732067B2, “Compounds and methods for activating the apoptotic arm of the unfolded protein response” (University of Kansas, priority 2012, dated 2017)
